Consider 16 molecules from patent US7348427B2, “Antipathogenic benzamide compounds” (Genesoft Pharmaceuticals, Inc., priority 2001, dated 2008).

In brackets after ≈: the same amount, converted by molar mass.

In assay [1] the test system is Bacillus cereus (ATCC 11778). The assay can be described thus: MIC, NCCLS broth microdilution assay. The class given is cell-based. The following applies: A = B. cereus ATCC 11778. In short, it runs like this:
(§1)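 MICs were determined by broth microdilution following NCCLS documents M7-A4, M11-A4 and M27-T. The antifungal assay followed the method in the Manual of Clinical Microbiology (1995).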
(Dilution methods test growth across graded concentrations, often in twofold steps.)

In assay [2] the test system is Staphylococcus aureus (ATCC 13709, a methicillin sensitive strain (MSSA)). Put plainly: MIC, NCCLS broth microdilution assay. The class given is cell-based. Particulars: E = S. aureus ATCC 13709. In short, it runs like this: as §1
Assay [3] concerns Staphylococcus aureus (ATCC 27660, a methicillin resistant strain (MRSA)). The assay can be described thus: MIC, NCCLS broth microdilution assay. The class given is cell-based. The following applies: F = S. aureus ATCC 27660. In short, it runs like this:
as §1

Assay [4] relates to Candida albicans (ATCC 38247). Put plainly: Antifungal MIC assay. Type of assay: cell-based. The following applies: B = C. albicans ATCC 38247. In short, it runs like this:
as §1

The next assay concerns E. faecalis ATCC 29212. Put plainly: MIC, NCCLS broth microdilution assay. Particulars: C = E. faecalis ATCC 29212. The class given is cell-based, Enterococcus faecalis. In short, it runs like this: (§2)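 Broth microdilution per NCCLS M7-A4 (1997) guidelines; MIC recorded as minimal inhibitory concentration.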
The next assay deals with S. pneumoniae ATCC 49619. The assay can be described thus: MIC, NCCLS broth microdilution assay. Type of assay: cell-based, Streptococcus pneumoniae. The following applies: H = S. pneumoniae ATCC 49619. In short, it runs like this:
as §2

[5] abbreviates: Staphylococcus aureus, read-out: Minimum Inhibitory Concentration (MIC).

Regarding `Cn1cc(NC(=O)c2cc(NC(=O)c3cc(NC(=O)c4ccc(Br)cc4F)cn3C)cn2C)cc1C(=O)NCCN1CCOCC1` [Compound B-83], the “Minimum Inhibitory Concentration (MIC)” value in assay [1] is “+++ (+++ = MIC ≦ 4)”; in assay [2], “+++ (+++ = MIC ≦ 4)”; in assay [3], “+++ (+++ = MIC ≦ 4)”; in assay [4], over 32 µg/mL; in the assay with E. faecalis ATCC 29212 it was “+++ (+++ = MIC ≦ 4)”; in the assay with S. pneumoniae ATCC 49619, “+++ (+++ = MIC ≦ 4)”.
In the case of `Cn1cc(NC(=O)c2cc(NC(=O)c3cc(NC(=O)c4ccc(OC(F)F)cc4)cn3C)cn2C)cc1C(=O)NCCN1CCCC1` [Compound B-84], the “Minimum Inhibitory Concentration (MIC)” value in assay [1] is reported as “+++ (+++ = MIC ≦ 4)”; in assay [2] it was “+++ (+++ = MIC ≦ 4)”; in assay [3] it was “+++ (+++ = MIC ≦ 4)”; in assay [4] it was “+ (+ = 12 ≦ MIC ≦ 32)”; in the assay with E. faecalis ATCC 29212 it was “+++ (+++ = MIC ≦ 4)”; in the assay on S. pneumoniae ATCC 49619, “+++ (+++ = MIC ≦ 4)”.
On to `Cn1cc(NC(=O)c2cc(NC(=O)c3cc(NC(=O)c4ccc(OC(F)F)cc4)cn3C)cn2C)cc1C(=O)NCCN1CCCCC1` [Compound B-85], for which the “Minimum Inhibitory Concentration (MIC)” value in assay [1] is reported as “+++ (+++ = MIC ≦ 4)”; in assay [2], “+++ (+++ = MIC ≦ 4)”; in assay [3], “+++ (+++ = MIC ≦ 4)”; in assay [4], “+ (+ = 12 ≦ MIC ≦ 32)”; in the assay on E. faecalis ATCC 29212 it was “+++ (+++ = MIC ≦ 4)”; in the assay with S. pneumoniae ATCC 49619, “+++ (+++ = MIC ≦ 4)”.
For `Cn1cc(NC(=O)c2cc(NC(=O)c3cc(NC(=O)c4ccc(OC(F)F)cc4)cn3C)cn2C)cc1C(=O)NCCN1CCSCC1` [Compound B-86], the “Minimum Inhibitory Concentration (MIC)” value was “+++ (+++ = MIC ≦ 4)” in assay [1]; “+++ (+++ = MIC ≦ 4)” in assay [2]; “+++ (+++ = MIC ≦ 4)” in assay [3]; over 32 µg/mL in assay [4]; “+++ (+++ = MIC ≦ 4)” in the assay on E. faecalis ATCC 29212; “+++ (+++ = MIC ≦ 4)” in the assay on S. pneumoniae ATCC 49619.
Consider `Cn1cc(NC(=O)c2ccc(F)cc2F)cc1C(=O)Nc1cc(C(=O)Nc2c[nH]c(C(=O)NCCN3CCOCC3)c2)n(C)c1` [Compound C-1], for which the MIC in assay [1] (Bacillus cereus, ATCC11778, read-out: Minimum Inhibitory Concentration (MIC)) was 12 to 32 µg/mL (≈ 19.3 to 51.4 µM); in assay [2] (setting [5]), 4 to 12 µg/mL (≈ 6.42 to 19.3 µM); in assay [3] (setting [5]), 12 to 32 µg/mL (≈ 19.3 to 51.4 µM); in assay [4] (Candida albicans, ATCC38247, read-out: Minimum Inhibitory Concentration (MIC)), over 32 µg/mL; in the assay on E. faecalis ATCC 29212 (Enterococcus faecalis, ATCC29212, read-out: Minimum Inhibitory Concentration (MIC)) it was 4 to 12 µg/mL (≈ 6.42 to 19.3 µM); in the assay with S. pneumoniae ATCC 49619 (Streptococcus pneumoniae, ATCC49619, read-out: Minimum Inhibitory Concentration (MIC)) it was at most 4 µg/mL.
On to `Cn1cc(NC(=O)c2cc(NC(=O)c3cc(NC(=O)c4ccc(F)cc4F)cn3C)c[nH]2)cc1C(=O)NCCN1CCOCC1` [Compound C-2], for which the “Minimum Inhibitory Concentration (MIC)” value was “++ (++ = 4 < MIC < 12)” in assay [1]; “++ (++ = 4 < MIC < 12)” in assay [2]; “++ (++ = 4 < MIC < 12)” in assay [3]; over 32 µg/mL in assay [4]; “++ (++ = 4 < MIC < 12)” in the assay on E. faecalis ATCC 29212; “+++ (+++ = MIC ≦ 4)” with S. pneumoniae ATCC 49619.
Consider `Cn1cc(NC(=O)c2cc(NC(=O)c3cc(NC(=O)c4ccc(F)cc4F)c[nH]3)c[nH]2)cc1C(=O)NCCN1CCOCC1` [Compound C-3], for which the “Minimum Inhibitory Concentration (MIC)” value is “+ (+ = 12 ≦ MIC ≦ 32)” in assay [1]; “+ (+ = 12 ≦ MIC ≦ 32)” in assay [2]; “+ (+ = 12 ≦ MIC ≦ 32)” in assay [3]; over 32 µg/mL in assay [4]; “++ (++ = 4 < MIC < 12)” in the assay on E. faecalis ATCC 29212; “+++ (+++ = MIC ≦ 4)” in the assay with S. pneumoniae ATCC 49619.
Consider `Cn1cc(NC(=O)c2cc(NC(=O)c3cc(NC(=O)c4ccc(F)cc4F)cn3C)cn2CCCO)cc1C(=O)NCCN1CCOCC1` [Compound C-4], for which the “Minimum Inhibitory Concentration (MIC)” value was “+ (+ = 12 ≦ MIC ≦ 32)” in assay [1]; “+ (+ = 12 ≦ MIC ≦ 32)” in assay [2]; “+ (+ = 12 ≦ MIC ≦ 32)” in assay [3]; over 32 µg/mL in assay [4]; “+ (+ = 12 ≦ MIC ≦ 32)” in the assay on E. faecalis ATCC 29212; “+++ (+++ = MIC ≦ 4)” in the assay with S. pneumoniae ATCC 49619.
As to `Cn1cc(NC(=O)c2cc(NC(=O)c3cc(NC(=O)c4ccc(F)cc4F)c[nH]3)cn2CCCO)cc1C(=O)NCCN1CCOCC1` [Compound C-5], the “Minimum Inhibitory Concentration (MIC)” value is “+ (+ = 12 ≦ MIC ≦ 32)” in assay [1]; “+ (+ = 12 ≦ MIC ≦ 32)” in assay [2]; “+ (+ = 12 ≦ MIC ≦ 32)” in assay [3]; over 32 µg/mL in assay [4]; “+ (+ = 12 ≦ MIC ≦ 32)” in the assay on E. faecalis ATCC 29212; “+++ (+++ = MIC ≦ 4)” in the assay on S. pneumoniae ATCC 49619.
Turning to `Cn1cc(NC(=O)c2cc(NC(=O)c3cc(NC(=O)c4ccc(F)cc4F)cn3CCCO)cn2C)cc1C(=O)NCCN1CCOCC1` [Compound C-6], the “Minimum Inhibitory Concentration (MIC)” value in assay [1] was “+ (+ = 12 ≦ MIC ≦ 32)”; in assay [2], “+ (+ = 12 ≦ MIC ≦ 32)”; in assay [3] it was “+ (+ = 12 ≦ MIC ≦ 32)”; in assay [4], over 32 µg/mL; in the assay with E. faecalis ATCC 29212, “+ (+ = 12 ≦ MIC ≦ 32)”; with S. pneumoniae ATCC 49619, “+++ (+++ = MIC ≦ 4)”.
With `COCn1cc(NC(=O)c2ccc(F)cc2F)cc1C(=O)Nc1cc(C(=O)Nc2cc(C(=O)NCCN3CCOCC3)n(C)c2)n(C)c1` [Compound C-7], the “Minimum Inhibitory Concentration (MIC)” value in assay [1] is “+ (+ = 12 ≦ MIC ≦ 32)”; in assay [2] it was “++ (++ = 4 < MIC < 12)”; in assay [3] it was “+ (+ = 12 ≦ MIC ≦ 32)”; in assay [4], over 32 µg/mL; in the assay with E. faecalis ATCC 29212 it was “+ (+ = 12 ≦ MIC ≦ 32)”; in the assay on S. pneumoniae ATCC 49619, “+++ (+++ = MIC ≦ 4)”.
As to `Cn1cc(NC(=O)c2cc(NC(=O)c3ccc(Cl)cc3F)c[nH]2)cc1C(=O)Nc1c[nH]c(C(=O)NCCN2CCOCC2)c1` [Compound C-8], the “Minimum Inhibitory Concentration (MIC)” value (in assay [1]; in assay [2]; in assay [3]; in assay [4]; in the assay on E. faecalis ATCC 29212; with S. pneumoniae ATCC 49619) was “+++ (+++ = MIC ≦ 4)” each time.
Turning to `Cn1cc(NC(=O)c2cc(NC(=O)c3cc(NC(=O)c4ccc(Cl)cc4F)cn3C)c[nH]2)cc1C(=O)NCCN1CCOCC1` [Compound C-10], the “Minimum Inhibitory Concentration (MIC)” value in assay [1] is given as “+++ (+++ = MIC ≦ 4)”; in assay [2], “+++ (+++ = MIC ≦ 4)”; in assay [3], “+++ (+++ = MIC ≦ 4)”; in assay [4], “+ (+ = 12 ≦ MIC ≦ 32)”; with E. faecalis ATCC 29212, “+++ (+++ = MIC ≦ 4)”; with S. pneumoniae ATCC 49619 it was “+++ (+++ = MIC ≦ 4)”.
As to `Cn1cc(NC(=O)c2cc(NC(=O)c3cc(NC(=O)c4ccc(Cl)cc4F)c[nH]3)cn2CCCO)cc1C(=O)NCCN1CCOCC1` [Compound C-14], the “Minimum Inhibitory Concentration (MIC)” value was “+++ (+++ = MIC ≦ 4)” in assay [1]; “+++ (+++ = MIC ≦ 4)” in assay [2]; “+++ (+++ = MIC ≦ 4)” in assay [3]; over 32 µg/mL in assay [4]; “++ (++ = 4 < MIC < 12)” in the assay on E. faecalis ATCC 29212; “+++ (+++ = MIC ≦ 4)” in the assay with S. pneumoniae ATCC 49619.
On to `Cn1cc(NC(=O)c2cc(NC(=O)c3cc(NC(=O)c4ccc(Cl)cc4F)c[nH]3)cn2CCCO)cc1C(=O)NCCN1CCOCC1` [Compound C-15], for which the “Minimum Inhibitory Concentration (MIC)” value is “++ (++ = 4 < MIC < 12)” in assay [1]; “++ (++ = 4 < MIC < 12)” in assay [2]; “+++ (+++ = MIC ≦ 4)” in assay [3]; over 32 µg/mL in assay [4]; “+ (+ = 12 ≦ MIC ≦ 32)” with E. faecalis ATCC 29212; “+++ (+++ = MIC ≦ 4)” in the assay on S. pneumoniae ATCC 49619.
In the case of `Cn1cc(NC(=O)c2cc(NC(=O)c3cc(NC(=O)c4ccc(Cl)cc4F)cn3CCCO)cn2C)cc1C(=O)NCCN1CCOCC1` [Compound C-16], the “Minimum Inhibitory Concentration (MIC)” value in assay [1] is “+++ (+++ = MIC ≦ 4)”; in assay [2], “+++ (+++ = MIC ≦ 4)”; in assay [3] it was “+++ (+++ = MIC ≦ 4)”; in assay [4], over 32 µg/mL; in the assay with E. faecalis ATCC 29212, “+++ (+++ = MIC ≦ 4)”; in the assay on S. pneumoniae ATCC 49619, “+++ (+++ = MIC ≦ 4)”.
